The results in this text go back to patent publication US12156867B2, “Melanocortin agents for use in the therapeutic treatment of melanoma, tumors of the gastrointestinal tract, and thyroid carcinoma” (UNIVERSITA' DI PISA, priority 2018, dated 2024).

As a reminder, the IC50 is the concentration at which inhibition is half-maximal.

What all share (format): cell-based
Assay [1] concerns WM 266-4 human melanoma cell line. Description: In vitro cytotoxicity / antiproliferative effect, cell count after 72 h. Particulars: for IC50: Homo sapiens, WM 266-4 cells, 72 h drug exposure, cell proliferation vs vehicle controls. An excerpt: (§1) The present study used the human melanoma cell lines A-2058 BRAF-mutant (CRL-11147), obtained from ATCC (American Type Culture Collection, Manassas, USA), and WM-266-4 (91061233), obtained from ECACC (European Collection of Authenticated Cell Cultures). In addition, carcinoma cells of the gastrointestinal tract (Caco-2, HT-29) and thyroid carcinoma cells (8305C) were used. The compound ML00253764 was purchased from Tocris Bioscience (Bristol, UK), and solubilized in sterile water. The compound Vemurafenib was obtained from Selleckchem (Munich, Germany) and dissolved in dimethyl sulfoxide (DMSO). For the in vitro studies, both drugs were dissolved in a stock solution at 10 mM concentration. In the same experiment, the concentration of DMSO in the medium of the controls was the same used to obtain the maximum concentration of Vemurafenib in the cell culture media. The biotinylated anti-rabbit IgG antibody and the avidin-biotin complex were purchased from Vector Laboratories (Burlingame, CA, USA), while TO-PRO-3 iodide was from Molecular Probes (Eugene, OR, USA). Anti-MC4R antibody (ab75506) and goat anti-rabbit IgG antibody (Alexa Fluor 488) were purchased from Abcam (Cambridge, MA, USA).
(§2) The two tumor cell lines WM-266-4 and A-2058 were grown in cell culture flasks as monolayers and maintained in EMEM and DMEM, respectively, supplemented with 10% fetal bovine serum (FBS), penicillin (50 IU/ml), streptomycin (50 μg/ml) and L-Glutamine (2 mM). The Caco-2, HT-29 and 8305C cells, respectively, were grown in EMEM 20% FBS, McCoy's 5a Medium Modified 10% FBS and RPMI 20% FBS. All reagents used for maintaining tumor cells in culture were purchased from Sigma-Aldrich. The cell lines were maintained in the B5061EK/CO2 mod. Heraeus incubator (Hanau, Germany) at a temperature of 37° C. in a humid atmosphere at 5% CO2. The cells were detached from the culture plates while in the logarithmic growth phase by using a 10× trypsin-EDTA solution and finally plated again to be tested or to keep them in culture.
(§3) The concentration that reduced cell survival by 50% (IC50) compared to controls was finally calculated with GraphPad Prism (version 5.0, San Diego, CA). The simultaneous combination of Vemurafenib and ML00253764 was assessed in the 2 melanoma lines for 72 hours using the aforementioned compounds in a fixed molar ratio of 1:10. The assessment of the level of interaction (synergism, additivity or antagonism) between the compounds ML00253764 and Vemurafenib was performed with the Combination Index (CI) method, according to which CI=1 indicates an additive effect, CI>1 an antagonistic effect and CI<1 a synergistic effect.

Assay [2] deals with A-2058 human melanoma cell line. The assay is described as above. The conditions noted are these: A-2058 cells; for IC50: Homo sapiens, A2058, 72 h drug exposure, cell proliferation vs vehicle controls.
From the text: as §1, §2, §3

The subject of assay [3] is HT-29 human carcinoma cell line of the gastrointestinal tract. The description is as above. The conditions noted are these: HT-29 cells.
From the text: as §1, §2, §3
(§4) The related IC50s were calculated at the end of the experiments.

For assay [4], the system named is 8305C human thyroid carcinoma cell line. The description is as above. Particulars: 8305C cells.
From the text: as §1, §2, §3, §4

For assay [5], the system named is A-2058 human melanoma cells. In words: Apoptosis analysis by Cell Death Detection ELISA Plus. The conditions noted are these: A-2058 cells, 10 nM (corresponding to the IC50), 72 h. The procedure: (§5) In order to assess the apoptotic activity, the melanoma cells were plated at 2×10^5 in sterile Petri dishes. The analysis of apoptosis was performed on WM-266-4 and A-2058 cell lines after treatment with the compound ML00253764 at the experimental IC50 obtained after 72 hours. After the treatment, the cells were scraped off and recovered with their medium into blind ended tubes and counted in the Burker chamber. An aliquot containing 50,000 cells was centrifuged for 10 minutes at 800 rpm, the pellet thus obtained was lysed with an appropriate volume of lysis buffer for 30 minutes at room temperature, then again centrifuged at 200 g for 10 minutes. The supernatant was used for apoptosis analysis by ELISA assay (Cell Death detection ELISA PLUS, Roche). The ELISA apoptosis assay was performed in 96-well microplates and the absorbance reading was performed by using the Thermo labsystems Multiskan Spectrum reader (M-Medical, MI). To visualize the apoptotic process, 2×10^4 A-2058 cells were plated on slides in a 12-well plate and treated for 72 hours with the compound ML00253764 at a concentration of 10 nM. At the end of the incubation with the drug, the cells were washed with PBS, fixed and stained with TO-PRO3 iodide. The coverslips were finally mounted, and the slides viewed under a Leica TCS SP5 confocal laser scanning microscope. […]
On the technique in general: An ELISA detects its analyte on a solid surface through an enzyme-linked reagent.

Assay [6] concerns WM 266-4 human melanoma cells. Described as above. Particulars: WM 266-4 cells, 35 nM (corresponding to the IC50), 72 h. The procedure:
as §5

Assay [7] concerns A-2058 human melanoma cells. Description: Apoptosis visualised by TO-PRO3 iodide nuclear staining, confocal microscopy. Particulars: A-2058 cells, 10 nM, 72 h. The procedure: as §5
[8] abbreviates: Homo sapiens, 72 h drug exposure, cell proliferation vs vehicle controls.

For `CCCS(=O)(=O)Nc1ccc(F)c(C(=O)c2c[nH]c3ncc(-c4ccc(Cl)cc4)cc23)c1F` [Vemurafenib], the values for the IC50 in assay [1] and in assay [2] were 46.6 nM and 526 nM, respectively.
Take `COc1ccc(Br)cc1CCc1c(F)cccc1C1=NCCN1` [ML00253764, 2-[2-[2-(5-bromo-2-methoxyphenyl)-ethyl]-3-fluorophenyl]-4,5-dihydro-1H-imidazole]: the antiproliferative effect result in assay [3] (10 nM, 72 h) is listed as “significant antiproliferative effect”; in assay [4] (10 nM, 72 h), “significant antiproliferative effect”; in assay [1] (WM-266-4 cells, 10 nM, 72 h), “significant antiproliferative effect”; in assay [2] (10 nM, 72 h), “significant antiproliferative effect”. The IC50 came to 806 nM in assay [3] (setting [8]), 7670 nM in assay [4] (setting [8]), 33.7 nM in assay [1] and 11.1 nM in assay [2]. In addition, in assay [5], the “pro-apoptotic activity (ELISA, cytosolic nucleosomes)” value is recorded as “significant pro-apoptotic activity”. In assay [6], the “apoptotic signal (ELISA, cytosolic nucleosomes)” value is “significant increase in the apoptotic signal”. Also, in assay [7], the “apoptosis, TO-PRO3 nuclear fluorescence” value is “increase in fluorescence with “shrunken” nuclei”.
